Measurements: patent US5972955A, “Water soluble C-ring analogues of 20(S)-camptothecin” (Dr. Reddy's Research Foundation, priority 1996, dated 1999)
“Also recorded” adds a separate entry of the source.

Experiments:
[1] = tested on: NCI's 60 human tumor cell line assay; assay: NCI 60 human tumor cell line assay, mean growth inhibition (Table 1); format: cell-based; conditions: read-out: IC50 = the mean value of the minimum drug concentration of the agent required to produce 50% cell growth inhibition (GI50); mean over NCI's 60 human tumor cell lines; 48 h; Sulforhodamine B
Method: (§1) Inoculates were allowed a preincubation period of 24 h at 37° C. for stabilization.
^a IC50 = the mean value of the minimum drug concentration (μm) of
NCI's 60 human tumor cell line assay.

[2] = in vivo; cited from earlier work
[3] = tested on: topoisomerase I; conditions: cited from earlier work
[4] = cited from earlier work
[5] = tested on: Human Serum Albumin; conditions: in the presence of HSA at 37° C.; cited from earlier work
[6] = tested on: SF 295; assay: NCI in vitro growth inhibition, CNS SF 295; format: cell-based; conditions: Homo sapiens, read-out: 50% Growth Inhibition (GI 50); SF 295, CNS; 48 h
Method: as §1

[7] = tested on: ACHN; assay: NCI in vitro growth inhibition, renal ACHN; format: cell-based; conditions: Homo sapiens, read-out: 50% Growth Inhibition (GI 50), 48 h
Method: as §1

[8] = tested on: MOLT-4; assay: NCI in vitro growth inhibition, leukemia MOLT-4; format: cell-based; conditions: Homo sapiens, read-out: 50% Growth Inhibition (GI 50); MOLT-4, leukemia; 48 h
Method: as §1

[9] = tested on: SF-539; assay: NCI in vitro growth inhibition, CNS SF-539; format: cell-based; conditions: Homo sapiens, read-out: 50% Growth Inhibition (GI 50); SF-539, CNS; 48 h
Method: as §1

[10] = tested on: HL 60; assay: NCI in vitro growth inhibition, leukemia HL 60; format: cell-based; conditions: Homo sapiens, read-out: 50% Growth Inhibition (GI 50); HL 60, leukemia; 48 h
Method: as §1

[11] = tested on: H 23; assay: NCI in vitro growth inhibition, NSLC H 23; format: cell-based; conditions: Homo sapiens, NCI-H23, read-out: 50% Growth Inhibition (GI 50); H 23, NSLC; 48 h
Method: as §1

[12] = tested on: MCF-7; assay: NCI in vitro growth inhibition, breast MCF-7; format: cell-based; conditions: Homo sapiens, MCF7, read-out: 50% Growth Inhibition (GI 50); MCF-7, breast; 48 h
Method: as §1

[13] = tested on: LOX IMVI; assay: NCI in vitro growth inhibition, melanoma LOX IMVI; format: cell-based; conditions: Homo sapiens, read-out: 50% Growth Inhibition (GI 50), 48 h
Method: as §1

[14] = tested on: T 47D; assay: NCI in vitro growth inhibition, breast T 47D; format: cell-based; conditions: Homo sapiens, T47D, read-out: 50% Growth Inhibition (GI 50), 48 h
Method: as §1

[15] = tested on: MCF7/ADR; assay: NCI in vitro growth inhibition, breast MCF7/ADR; format: cell-based; conditions: Homo sapiens, NCI/ADR-RES, read-out: 50% Growth Inhibition (GI 50), 48 h
Method: as §1

[16] = tested on: 786-O; assay: NCI in vitro growth inhibition, renal 786-O; format: cell-based; conditions: Homo sapiens, 786-0, read-out: 50% Growth Inhibition (GI 50), 48 h
Method: as §1

[17] = tested on: SK MEL-5; assay: NCI in vitro growth inhibition, melanoma SK MEL-5; format: cell-based; conditions: Homo sapiens, read-out: 50% Growth Inhibition (GI 50); SK MEL-5, melanoma; 48 h
Method: as §1

[18] = tested on: H 522; assay: NCI in vitro growth inhibition, NSLC H 522; format: cell-based; conditions: Homo sapiens, NCI-H522, read-out: 50% Growth Inhibition (GI 50); H 522, NSLC; 48 h
Method: as §1

[19] = tested on: HOP 62; assay: NCI in vitro growth inhibition, NSLC HOP 62; format: cell-based; conditions: Homo sapiens, read-out: 50% Growth Inhibition (GI 50); HOP 62, NSLC; 48 h
Method: as §1

[20] = tested on: M-14; assay: NCI in vitro growth inhibition, melanoma M-14; format: cell-based; conditions: Homo sapiens, M14, read-out: 50% Growth Inhibition (GI 50); M-14, melanoma; 48 h
Method: as §1

[21] = tested on: SR; assay: NCI in vitro growth inhibition, leukemia SR; format: cell-based; conditions: Homo sapiens, read-out: 50% Growth Inhibition (GI 50), 48 h
Method: as §1

[22] = tested on: H 460; assay: NCI in vitro growth inhibition, NSLC H 460; format: cell-based; conditions: Homo sapiens, NCI-H460, read-out: 50% Growth Inhibition (GI 50); H 460, NSLC; 48 h
Method: as §1

[23] = tested on: UACC 62; assay: NCI in vitro growth inhibition, melanoma UACC 62; format: cell-based; conditions: Homo sapiens, read-out: 50% Growth Inhibition (GI 50); UACC 62, melanoma; 48 h
Method: as §1

[24] = tested on: SF-268; assay: NCI in vitro growth inhibition, CNS SF-268; format: cell-based; conditions: Homo sapiens, SF-268, 48 h, read-out: 50% Growth Inhibition (GI 50)
Method: as §1

[25] = tested on: CAKI-1; assay: NCI in vitro growth inhibition, renal CAKI-1; format: cell-based; conditions: Homo sapiens, read-out: 50% Growth Inhibition (GI 50); CAKI-1, renal; 48 h
Method: as §1

[26] = tested on: CCRF-CEM; assay: NCI in vitro growth inhibition, leukemia CCRF-CEM; format: cell-based; conditions: Homo sapiens, read-out: 50% Growth Inhibition (GI 50), 48 h
Method: as §1

[27] = compared with 20(RS)-camptothecin; cited from earlier work

CCN(CC)CCNC1c2cc3c(OC)cccc3nc2-c2cc3c(c(=O)n21)COC(=O)[C@]3(O)CC (stereo partly shown) [9-Methoxy-5-(N,N-diethylethylenediamino) CPT]
IC50 [1]: 19100 nM

CCN(CC)CCCNC1c2cc3c(OC)cccc3nc2-c2cc3c(c(=O)n21)COC(=O)C3(O)CC (stereo not shown) [9-Methoxy-5-(N,N-diethylpropylenediamino) CPT]
IC50 [1]: 8310 nM

CC[C@@]1(O)C(=O)OCc2c1cc1n(c2=O)C(NCCN2CCOCC2)c2cc3c(OC)cccc3nc2-1 (stereo partly shown) [9-Methoxy-5-morphilinoethylamino CPT]
IC50 [1]: > 30000 nM

CC[C@@]1(O)C(=O)OCc2c1cc1n(c2=O)C(NCCN2CCCCC2)c2cc3c(OC)cccc3nc2-1 (stereo partly shown) [9-Methoxy-5-piperidinoethylamino CPT]
IC50 [1]: 28100 nM

CC[C@@]1(O)C(=O)OCc2c1cc1n(c2=O)C(NCCN2CCCC2)c2cc3c(OC)cccc3nc2-1 (stereo partly shown) [9-Methoxy-5-pyrrolidinoethylamino CPT]
IC50 [1]: 31600 nM

CC[C@@]1(O)C(=O)OCc2c1cc1n(c2=O)Cc2cc3ccccc3nc2-1 [20(S)-Camptothecin]
side effects / toxicity (in words) [2]: unacceptable side effects on humans; also recorded: high toxicity problems
inhibition of topoisomerase I (in words) [3]: inhibitor of topoisomerise I
water solubility (in words) [4]: low water solubility

CCc1c2c(nc3ccc(OC(=O)N4CCC(N5CCCCC5)CC4)cc13)-c1cc3c(c(=O)n1C2)COC(=O)[C@]3(O)CC [CPT-11]
percentage (%) of lactone form at equilibrium (in words) [5]: a higher percentage (%) of lactone form at equilibrium than 20(S) camptothecin of the formula 2 and 9-aminocamptothecin of the formula 5

CC[C@@]1(O)C(=O)OCc2c1cc1n(c2=O)C(NO)c2cc3ccccc3nc2-1 (stereo partly shown) [Example 1, 5-Hydroxylaminocamptothecin]
GI50 [6]: 250 nM
GI50 [7]: 400 nM
GI50 [8]: 180 nM
GI50 [9]: 1200 nM
GI50 [10]: 380 nM
GI50 [11]: 1620 nM
GI50 [12]: 340 nM
GI50 [13]: 3380 nM
GI50 [14]: 200 nM
GI50 [15]: 2180 nM
GI50 [16]: 560 nM
GI50 [17]: 3380 nM
GI50 [18]: 200 nM
GI50 [19]: 380 nM
GI50 [20]: 370 nM
IC50 [1]: 2390 nM
GI50 [21]: 530 nM
GI50 [22]: 480 nM
GI50 [23]: 370 nM

CC[C@@]1(O)C(=O)OCc2c1cc1n(c2=O)C(NCCO)c2cc3ccccc3nc2-1 (stereo partly shown) [Example 2, 5-(2'-hydroxyethylamino)camptothecin]
IC50 [1]: > 30000 nM

CC[C@@]1(O)C(=O)OCc2c1cc1n(c2=O)C(NCCN(C)C)c2cc3ccccc3nc2-1 (stereo partly shown) [Example 4, 5-(N,N-Dimethylethylenediamino)camptothecin]
IC50 [1]: > 30000 nM

CC[C@@]1(O)C(=O)OCc2c1cc1n(c2=O)C(NCc2ccccc2)c2cc3ccccc3nc2-1 (stereo partly shown) [Example 5, 5-Benzylaminocamptothecin]
IC50 [1]: > 30000 nM

CC[C@@]1(O)C(=O)OCc2c1cc1n(c2=O)C(NCCCl)c2cc3ccccc3nc2-1 (stereo partly shown) [Example 6, 5-(2'-chloroethylamino)camptothecin]
IC50 [1]: 19000 nM

CC[C@@]1(O)C(=O)OCc2c1cc1n(c2=O)C(NCCN(C)C)c2cc3c(OC)cccc3nc2-1 (stereo partly shown) [Example 7, 5-(N,N-Dimethylethylenediamino)-9-methoxycamptothecin]
IC50 [1]: 9540 nM

CC[C@@]1(O)C(=O)OCc2c1cc1n(c2=O)C(NCC(O)CO)c2cc3c(OC)cccc3nc2-1 (stereo partly shown) [Example 9]
IC50 [1]: 6600 nM

CC[C@@]1(O)C(=O)OCc2c1cc1n(c2=O)C(NCCCCO)c2cc3c(OC)cccc3nc2-1 (stereo partly shown) [Example 10, 5-(4'-hydroxybutylamino)-9-methoxycamptothecin]
IC50 [1]: 13100 nM

CC[C@@]1(O)C(=O)OCc2c1cc1n(c2=O)C(NO)c2cc3cc(O)ccc3nc2-1 (stereo partly shown) [Example 11, 10-Hydroxy-5-hydroxylaminocamptothecin]
GI50 [6]: 4890 nM
GI50 [24]: 2450 nM
GI50 [7]: 3160 nM
GI50 [8]: 10 nM
GI50 [9]: 3160 nM
GI50 [10]: 1860 nM
GI50 [11]: 4160 nM
GI50 [12]: 4070 nM
GI50 [13]: 2690 nM
GI50 [14]: 1280 nM
GI50 [15]: > 30000 nM
GI50 [16]: 2690 nM
GI50 [17]: 15000 nM
GI50 [18]: 5370 nM
GI50 [19]: 7410 nM
GI50 [20]: 4260 nM
IC50 [1]: 10000 nM
GI50 [21]: 100 nM
GI50 [22]: 1540 nM
GI50 [25]: 4260 nM
GI50 [23]: 4160 nM

CC[C@@]1(O)C(=O)OCc2c1cc1n(c2=O)C(NC)c2cc3ccccc3nc2-1 (stereo partly shown) [Example 12, 5-Methylaminocamptothecin]
GI50 [6]: 1120 nM
GI50 [24]: 850 nM
GI50 [7]: 970 nM
GI50 [8]: 150 nM
GI50 [9]: 1810 nM
GI50 [10]: 220 nM
GI50 [11]: 2570 nM
GI50 [12]: 1250 nM
GI50 [13]: 2340 nM
GI50 [14]: 4670 nM
GI50 [15]: 1940 nM
GI50 [16]: 4070 nM
GI50 [17]: 2510 nM
GI50 [18]: 2880 nM
GI50 [19]: 1730 nM
GI50 [26]: 230 nM
GI50 [20]: 2180 nM
IC50 [1]: 4670 nM
GI50 [21]: 30 nM
GI50 [25]: 2290 nM

CC[C@@]1(O)C(=O)OCc2c1cc1n(c2=O)C(NCCN2CCCC2)c2cc3ccccc3nc2-1 (stereo partly shown) [Example 15, 5-(Pyrrolidinoethylamino)camptothecin]
IC50 [1]: > 30000 nM

CC[C@@]1(O)C(=O)OCc2c1cc1n(c2=O)C(NCCN2CCCCC2)c2cc3ccccc3nc2-1 (stereo partly shown) [Example 16, 5-(Piperidinoethylamino)camptothecin]
IC50 [1]: 23400 nM

CCc1c2c(nc3ccc(O)cc13)-c1cc3c(c(=O)n1C2)COC(=O)[C@]3(O)CC [SN-38, 7-ethyl-10-hydroxycamptothecin]
percentage (%) of lactone form at equilibrium (in words) [5]: a higher percentage (%) of lactone form at equilibrium than 20(S) camptothecin of the formula 2 and 9-aminocamptothecin of the formula 5

CC[C@@]1(O)C(=O)OCc2c1cc1n(c2=O)Cc2cc3c(CN(C)C)c(O)ccc3nc2-1 [Topotecan]
percentage (%) of lactone form at equilibrium (in words) [5]: a higher percentage (%) of lactone form at equilibrium than 20(S) camptothecin of the formula 2 and 9-aminocamptothecin of the formula 5

CCc1c2c(nc3ccc(OC)cc13)-c1cc3c(c(=O)n1C2)COC(=O)[C@]3(N)CC [formula 6]
in vivo antitumor activity (in words) [27]: increased in vivo antitumor activity than 20(RS)-camptothecin

C=C1C(=O)OCc2c1cc1n(c2=O)Cc2c-1nc1ccc(O)cc1c2CC [formula 8]
inhibition of topoisomerase I (in words) [3]: potent camptothecin like inhibition of topoisomerase I activity
